Test results: ChEMBL document CHEMBL1137983, “AL-12182, a novel 11-oxa prostaglandin analog with topical ocular hypotensive activity in the monkey” (Bioorg Med Chem Lett, 2004)
Blank lines part the entries; values can stand above or below the compound they belong to.

Legend:
[1] = biological target: Prostaglandin F2-alpha receptor (Bos taurus, UniProt P37289); experiment: Binding affinity for Prostanoid FP receptor of bovine corpus luteum
[2] = biological target: Prostaglandin F2-alpha receptor (Mus musculus) (UniProt P43117); experiment: Percent response for stimulation of prostanoid FP receptor-linked phosphoinositide turnover in Swiss 3T3 mouse fibroblast cells
Oryctolagus cuniculus = species on record: Oryctolagus cuniculus; experiment: Effective dose estimated to elicit conjunctival hyperemia in rabbits over 4 h; assay type: functional, Conjunctiva
Monkey [3] = experiment: Percentage change to elicit monkey intraocular pressure at 3 ug; assay type: functional, Cercopithecidae, Eye
Felis catus = species on record: Felis catus; experiment: Effective dose to cat pupil diameter constriction
Monkey [4] = experiment: Percentage change to elicit monkey intraocular pressure at 0.3 ug; assay type: functional, Cercopithecidae, Eye
Monkey [5] = experiment: Percentage change to elicit monkey intraocular pressure at 30 ug; assay type: functional, Cercopithecidae, Eye
Monkey [6] = experiment: Percentage change to elicit monkey intraocular pressure at 1 ug; assay type: functional, Cercopithecidae, Eye

Chain of Prostaglandin F2-alpha receptor (Mus musculus) (P43117 whole entry, looked up): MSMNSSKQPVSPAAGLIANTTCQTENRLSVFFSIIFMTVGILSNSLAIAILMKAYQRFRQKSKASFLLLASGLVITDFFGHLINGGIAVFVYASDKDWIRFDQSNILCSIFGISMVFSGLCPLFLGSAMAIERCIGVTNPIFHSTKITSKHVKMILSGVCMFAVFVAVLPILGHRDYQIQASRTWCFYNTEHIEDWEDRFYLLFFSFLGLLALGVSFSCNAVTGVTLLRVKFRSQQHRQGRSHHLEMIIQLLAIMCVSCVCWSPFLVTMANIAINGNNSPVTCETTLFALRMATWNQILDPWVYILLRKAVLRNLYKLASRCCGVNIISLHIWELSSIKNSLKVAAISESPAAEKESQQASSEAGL
Chain of Prostaglandin F2-alpha receptor (P37289 whole entry): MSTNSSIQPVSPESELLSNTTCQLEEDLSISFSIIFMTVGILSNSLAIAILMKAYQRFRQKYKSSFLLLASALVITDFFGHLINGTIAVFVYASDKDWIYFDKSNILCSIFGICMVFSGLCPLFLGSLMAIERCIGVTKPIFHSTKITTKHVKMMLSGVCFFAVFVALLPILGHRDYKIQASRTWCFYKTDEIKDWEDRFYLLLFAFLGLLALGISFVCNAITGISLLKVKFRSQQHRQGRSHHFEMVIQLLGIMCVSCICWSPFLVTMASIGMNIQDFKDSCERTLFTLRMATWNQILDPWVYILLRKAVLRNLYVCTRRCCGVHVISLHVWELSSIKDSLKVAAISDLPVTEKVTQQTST

SMILES: CCCCC[C@H](O)/C=C/[C@H]1OC[C@H](O)[C@@H]1C/C=C\CCCC(=O)O
Ki [1]: 6700 nM
Response [2]: 64%

SMILES: O=C(O)CC/C=C\CCC[C@H]1[C@@H](O)CO[C@@H]1/C=C/[C@H](O)COc1cccc(C(F)(F)F)c1
Ki [1]: 9900 nM
Response [2]: 61%

SMILES: O=C(O)CCCC/C=C\C[C@H]1[C@@H](O)CO[C@@H]1/C=C/[C@H](O)COc1cccc(Cl)c1
Ki [1]: 7300 nM
Response [2]: 67%

SMILES: O=C(O)CCCC/C=C\C[C@H]1[C@@H](O)CO[C@@H]1/C=C/[C@H](O)COc1cccc(C(F)(F)F)c1
Ki [1]: > 10000 nM
Response [2]: 43%

SMILES: CCCCC[C@@H](O)/C=C/[C@H]1OC[C@H](O)[C@@H]1C/C=C\CCCC(=O)O
Ki [1]: > 10000 nM

SMILES: O=C(O)CC/C=C\CCC[C@H]1[C@@H](O)CO[C@@H]1/C=C/[C@H](O)COc1ccccc1
Ki [1]: 5100 nM
Response [2]: 59%

SMILES: CC(C)OC(=O)CCC/C=C\CC[C@H]1[C@@H](O)CO[C@@H]1/C=C/[C@@H](O)COc1cccc(Cl)c1 [AL-12182]
ED5 (Oryctolagus cuniculus): 30 µg
Change (Monkey [3]): -40%
ED5 (Felis catus): 0.2 µg

SMILES: CC(C)OC(=O)CCC/C=C\C[C@H]1[C@@H](O)CO[C@@H]1/C=C/[C@@H](O)COc1cccc(Cl)c1
Change (Monkey [5]): -15%
ED5 (Oryctolagus cuniculus): 30 µg
ED5 (Felis catus): 0.8 µg

SMILES: CCCCC[C@H](O)/C=C/C1[C@H](O)C[C@H](O)[C@@H]1C/C=C\CCCC(=O)OC(C)C (stereo partly specified)
Change (Monkey [6]): -38%
ED5 (Oryctolagus cuniculus): <0.1 µg
ED5 (Felis catus): 0.03 µg

Second part, led by results:

Ki [1]: 330 nM
Response [2]: 83%
SMILES: O=C(O)CC/C=C\CCC[C@H]1[C@@H](O)CO[C@@H]1/C=C/[C@@H](O)COc1ccccc1

Ki [1]: 640 nM
Response [2]: 67%
SMILES: O=C(O)CCCC/C=C\C[C@H]1[C@@H](O)CO[C@@H]1/C=C/[C@@H](O)COc1ccccc1

Ki [1]: 2800 nM
Response [2]: 49%
SMILES: O=C(O)CCCC/C=C\C[C@H]1[C@@H](O)CO[C@@H]1/C=C/[C@H](O)COc1ccccc1

Ki [1]: 350 nM
Response [2]: 88%
SMILES: O=C(O)CC/C=C\CCC[C@H]1[C@@H](O)CO[C@@H]1/C=C/[C@@H](O)COc1cccc(C(F)(F)F)c1

Ki [1]: 890 nM
Response [2]: 84%
SMILES: O=C(O)CCCC/C=C\C[C@H]1[C@@H](O)CO[C@@H]1/C=C/[C@@H](O)COc1cccc(Cl)c1

Ki [1]: 3100 nM
Response [2]: 74%
SMILES: O=C(O)CCCC/C=C\C[C@H]1[C@@H](O)CO[C@@H]1/C=C/[C@@H](O)COc1cccc(C(F)(F)F)c1

Ki [1]: 147 nM
Response [2]: 88%
SMILES: O=C(O)CC/C=C\CCC[C@H]1[C@@H](O)CO[C@@H]1/C=C/[C@@H](O)COc1cccc(Cl)c1

Ki [1]: 92 nM
Response [2]: 75%
SMILES: CC(C)OC(=O)CCC/C=C/C[C@@H]1[C@@H](CC[C@@H](O)CCc2ccccc2)[C@H](O)C[C@@H]1O
ED5 (Oryctolagus cuniculus): 1.8 µg
Change (Monkey [3]): -27%
ED5 (Felis catus): 0.13 µg

Ki [1]: 52 nM
Response [2]: 100%
SMILES: CC(C)OC(=O)CCC/C=C/C[C@@H]1[C@@H](/C=C/C(O)COc2cccc(C(F)(F)F)c2)[C@H](O)C[C@@H]1O (stereo partly specified)
ED5 (Oryctolagus cuniculus): 3 µg
ED5 (Felis catus): 0.01 µg
Change (Monkey [4]): -29%

Ki [1]: 820 nM
Response [2]: 71%
SMILES: O=C(O)CC/C=C\CCC[C@H]1[C@@H](O)CO[C@@H]1/C=C/[C@H](O)COc1cccc(Cl)c1
